Experimental data published in patent publication US10570075B2, “Compounds” (DSM IP ASSETS B.V., priority 2015, dated 2020).

Molecular target: T1, human vitamin D receptor (VDR) (Homo sapiens, UniProt P11473)
T1 construct: expressed in transfected cells; host or cells: HEK293 cells (ATCC), transient polyethylene-imine-based transfection
T1 sequence (P11473 127-423 limits assumed): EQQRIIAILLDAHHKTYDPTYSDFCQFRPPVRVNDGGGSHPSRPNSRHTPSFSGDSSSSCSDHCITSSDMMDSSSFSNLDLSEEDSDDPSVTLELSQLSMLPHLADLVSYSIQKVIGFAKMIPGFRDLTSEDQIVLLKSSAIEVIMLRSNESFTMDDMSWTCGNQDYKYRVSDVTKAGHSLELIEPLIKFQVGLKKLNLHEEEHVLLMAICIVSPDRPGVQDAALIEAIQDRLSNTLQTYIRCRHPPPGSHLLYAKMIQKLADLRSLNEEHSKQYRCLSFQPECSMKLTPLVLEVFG
Assay: Human vitamin D receptor (VDR) agonist activity, GAL4-VDR LBD luciferase transactivation assay in HEK293 cells
Format: cell-based
Settings: transiently transfected HEK293 cells, VDR LBD-GAL4 DBD hybrid receptor, pFR-Luc luciferase reporter, 16 h incubation; read-out: Effective concentrations of half maximal activation (EC50)
Excerpt: By way of example, the human vitamin D receptor (VDR) agonist activity of the claimed compounds can be tested using a cell based transactivation assay in an eukaryotic cell line. After a co-transfection, using a reporter plasmid construct and a hybrid receptor construct containing the ligand-binding domain of the human VDR linked to the DNA-binding domain of the yeast transcription factor GAL4, the cultured cells were stimulated by the VDR agonists. The hybrid VDR-GAL4 receptor binds the VDR agonists and transactivates luciferase reporter expression through the GAL4-response elements in the promoter of the luciferase gene (reporter construct). The VDR agonist binding and transactivation is determined by measuring the luciferase luminescence activity. The effective concentration of half maximal activation (EC50) was determined for the VDR agonists by means of dose-response experiments. The details of the protocol method of this test according to the invention are described in the example section. […]

## CC/C(=C\C=C\C(O)(C(F)(F)F)C(F)(F)F)c1cccc(CCc2ccc(CO)c(C(C)O)c2)c1 (racemic) [I-a, (3E,5E)-1,1,1-trifluoro-6-(3-(3-(1-hydroxyethyl)-4-(hydroxymethyl)phenethyl)phenyl)-2-(trifluoromethyl)octa-3,5-dien-2-ol]
  EC50: 8 nM
